Seven compounds from patent US6387905B2, “Compounds useful for inhibition of farnesyl protein transferase” (Schering Corporation, priority 1996, dated 2002) can be followed below.

Series [1] concerns the target farnesyl protein transferase (FPT), H-ras (Homo sapiens, UniProt P49354+P49356). Kind of series: FPT IC50 (H-ras), inhibition of farnesyl protein transferase, in vitro enzyme assay. Type of series: biochemical. The note with it: for IC50: Table 3, H-ras, read-out: FPT IC50 (nM) (H-ras).
Series [2] concerns COS Cell. The experiment in a line: COS Cell IC50 (Cell-Based Assay). The note with it: COS, Table 3; read-out: COS Cell IC50.
Series [3] has as its system Human tumor cells. The experiment in a line: Soft Agar Assay (anchorage-independent growth). The note with it: Homo sapiens, Table 5; read-out: Soft Agar IC50. Type of series: cell-based.
In series [4] the target is farnesyl protein transferase (FPT), K-ras (Homo sapiens, UniProt P49354+P49356). Kind of series: FPT IC50 (K-ras), inhibition of farnesyl protein transferase, in vitro enzyme assay. Type of series: biochemical. On the procedure: FPT IC50 (inhibition of farnesyl protein transferase, in vitro enzyme assay) and COS Cell IC50 (Cell-Based Assay) were determined following the assay procedures described in WO 95/10516, published Apr. 20, 1995. GGPT IC50 (inhibition of geranylgeranyl protein transferase, in vitro enzyme assay), Cell Mat Assay, and anti-tumor activity (in vivo anti-tumor studies) could be determined by the assay procedures described in WO 95/10516. The disclosure of WO 95/10516 is incorporated herein by reference thereto.

pIC50: −log10 of the molar value. Read-outs that look alike come from different tables or passages of the source.

What is called IC50 is the midpoint of a concentration-inhibition curve. In general, pIC50 refers to the negative decadic logarithm of the IC50, by convention in mol/L. A word on the melting point: it is the temperature of the solid-liquid transition. Compound `CCOC(=O)CC(=O)N1CCC(CC(=O)N2CCC(C3c4ncc(Br)cc4CCc4cc(Cl)cc(Br)c43)CC2)CC1` (single isomer, unassigned; (+)) [Example 26] returned a melting point of 77 to 78 °C. Besides, the IC50 in series [1] is under 2 nM. For the same compound, in series [2], the pIC50 is 6.90.
Take `COC(=O)CCC(=O)N1CCC(CC(=O)N2CCC(C3c4ncc(Br)cc4CCc4cc(Cl)cc(Br)c43)CC2)CC1` (single isomer, unassigned; (+)) [Example 25]: the melting point lay within 114 to 115 °C. For the same compound, the concentration for half-maximal inhibition (IC50) in series [1] was determined as 5.1 nM. Moreover, the pIC50 in series [2] was 7.41. Further, in series [3], the pIC50 was 6.60.
For the compound `CN(C)CCC(=O)N1CCC(CC(=O)N2CCC(C3c4ncc(Br)cc4CCc4cc(Cl)cc(Br)c43)CC2)CC1` (single isomer, unassigned; (+)) [Example 20], the melting point was in the range of 82 to 84 °C. The concentration for half-maximal inhibition (IC50) in series [1] was determined as 5.8 nM. This compound gave a pIC50 in series [4] of 7.70. Besides, the pIC50 in series [2] is 8.00. In series [3], the pIC50 was 6.72.
The compound `CCOC(=O)CC(=O)N1CCC(CC(=O)N2CCC([C@H]3c4ncc(Br)cc4CCc4cc(Cl)cc(Br)c43)CC2)CC1` [Example 30] gave a melting point of 77.2 to 78.1 °C. Moreover, in series [1] (Table 4, read-out: FPT IC50), the pIC50 was 8.55.
With `COC(=O)CCCC(=O)N1CCC(CC(=O)N2CCC(C3c4ncc(Br)cc4CCc4cc(Cl)cc(Br)c43)CC2)CC1` (single isomer, unassigned; (+)) [Example 24], the melting point fell in the range of 101 to 102 °C. In addition, the IC50 in series [1] amounted to 4.8 nM. In series [2], the pIC50 is 8.00.
For `CN(C)CCCC(=O)N1CCC(CC(=O)N2CCC(C3c4ncc(Br)cc4CCc4cc(Cl)cc(Br)c43)CC2)CC1` (single isomer, unassigned; (+)) [Example 19], the melting point lay in the range of 69 to 71 °C. The IC50 in series [1] was found to be 35 nM.
As to `O=C(CCN1CCCCC1)N1CCC(CC(=O)N2CCC(C3c4ncc(Br)cc4CCc4cc(Cl)cc(Br)c43)CC2)CC1` (single isomer, unassigned; (+)) [Example 22], the melting point was 127 to 128 °C. Further, the IC50 in series [1] was under 2.6 nM. Further, the pIC50 in series [2] is 7.37.
